pIC50: −log10 of the molar value. The source made the active and inactive calls. No cut-off for these calls is given here.
How the values were obtained:
Type in all cases: functional, cell-based
K562 = assay: Cytotoxicity against human K562 cells by MTT assay
LNCaP = assay: Cytotoxicity against human LNCAP cells by MTT assay
HL-60 [1] = assay: Cytotoxicity against human HL60 cells by MTT assay
HL-60 [2] = assay: Induction of apoptosis in human HL60 cells assessed as DNA fragmentation at 30 uM after 18 hrs by agarose-gel electrophoresis

SMILES | pIC50 (K562) | pIC50 (LNCaP) | pIC50 (HL-60 [1]) | Activity (HL-60 [2])
CC1=C[C@H]2[C@@H]3C(=O)[C@]4(C[C@H]2O)C[C@](O)(Cc2ccc(cc2)O[C@H]2[C@H]3[C@@H]1[C@]1(C)C[C@H](C)C[C@H](C)[C@@H]21)NC4=O [PYRROSPIRONE A] | 5.00 | 4.75 | 4.83 | Active
CC1=C[C@H]2[C@@H]3C(=O)[C@]4(C[C@@H]2O)C[C@](O)(Cc2ccc(cc2)O[C@H]2[C@H]3[C@@H]1[C@]1(C)C[C@H](C)C[C@H](C)[C@@H]21)NC4=O [PYRROSPIRONE B] | 5.03 | 4.69 | 5.13 | Active
C=C[C@@H]1C=C(C)[C@H]2[C@@H]3[C@H](Oc4ccc(cc4)C[C@@]4(O)C=C(C(=O)N4)C(=O)[C@@H]13)[C@@H]1[C@@H](C)C[C@@H](C)C[C@]12C [PYRROSPIRONE C] | 6.35 | 6.32 | 6.92 | 
C=C[C@@H]1C=C(C)[C@H]2[C@@H]3[C@H](Oc4ccc(cc4)C[C@@]4(O)C[C@H](C(=O)N4)C(=O)[C@@H]13)[C@@H]1[C@@H](C)C[C@@H](C)C[C@]12C [PYRROSPIRONE D] | 5.06 | 4.93 | 5.16 | 

Reference: ChEMBL document CHEMBL1152286, “Pyrrospirones A and B, apoptosis inducers in HL-60 cells, from an endophytic fungus, Neonectria ramulariae Wollenw KS-246” (Bioorg Med Chem Lett, 2008)
